According to patent US7652028B2, “Indenoisoquinolinone analogs and methods of use thereof” (Inotek Pharmaceuticals Corporation, priority 2005, dated 2010):
pEC50: −log10 of the molar value.

Molecular target: T1, PARP (Homo sapiens, UniProt P09874)
T1 construct: endogenous in cells; host or cells: A549 human alveolar epithelial adenocarcinoma cells
Test: PARP activity in hydrogen peroxide-stimulated A549 cells, whole-cell based assay (3H-NAD+ incorporation)
Settings: 15 min pretreatment (10 nM-300 nM), hydrogen peroxide-induced PARP activation, from dose-response curve
Method: Human alveolar epithelial cells (A549), an adenocarcinoma cell line with the alveolar type 2 phenotype were cultured in […] medium supplemented with 10% fetal bovine serum. Cells were grown to 80% confluence in 12-well plates and pretreated with various concentrations (10 nM-300 nM) of an Indenoisoquinolinone Analog for 15 minutes. Hydrogen peroxide, a prototypical oxidant that induces DNA single strand breakage, was used to induce PARP activation. Hydrogen peroxide was diluted in culture media and added to the cells in a bolus of 20 μl. After 20 minutes of incubation, the medium was aspirated and 0.5 mL of assay buffer (56 mM HEPES pH 7.5, 28 mM KCl, 28 mM NaCl, 2 mM MgCl2, 0.01% w/v digitonin and 0.5 μCi/ml 3H-NAD^+) was added to cells. Following incubation in the assay buffer (15 minutes at 37° C.), PARP activity was measured. Cells were scraped from the plate, transferred to a 1.5 mL eppendorf tube and then added 200 μl of ice cold 50% w/v TCA. […] The contents of the tubes were added to 6.5 mL ScintiSafe Plus scintillation liquid (Fisher Scientific) and radioactivity was determined using a liquid scintillation counter (Wallac, Gaithersburg, Md.). […] EC50 values were determined from a dose-response curve. IC50 values were determined using a commercially available in vitro PARP-1 inhibition assay kit (Trevigen, Gaithersburg, Md., USA).

T1 sequence (P09874 whole entry): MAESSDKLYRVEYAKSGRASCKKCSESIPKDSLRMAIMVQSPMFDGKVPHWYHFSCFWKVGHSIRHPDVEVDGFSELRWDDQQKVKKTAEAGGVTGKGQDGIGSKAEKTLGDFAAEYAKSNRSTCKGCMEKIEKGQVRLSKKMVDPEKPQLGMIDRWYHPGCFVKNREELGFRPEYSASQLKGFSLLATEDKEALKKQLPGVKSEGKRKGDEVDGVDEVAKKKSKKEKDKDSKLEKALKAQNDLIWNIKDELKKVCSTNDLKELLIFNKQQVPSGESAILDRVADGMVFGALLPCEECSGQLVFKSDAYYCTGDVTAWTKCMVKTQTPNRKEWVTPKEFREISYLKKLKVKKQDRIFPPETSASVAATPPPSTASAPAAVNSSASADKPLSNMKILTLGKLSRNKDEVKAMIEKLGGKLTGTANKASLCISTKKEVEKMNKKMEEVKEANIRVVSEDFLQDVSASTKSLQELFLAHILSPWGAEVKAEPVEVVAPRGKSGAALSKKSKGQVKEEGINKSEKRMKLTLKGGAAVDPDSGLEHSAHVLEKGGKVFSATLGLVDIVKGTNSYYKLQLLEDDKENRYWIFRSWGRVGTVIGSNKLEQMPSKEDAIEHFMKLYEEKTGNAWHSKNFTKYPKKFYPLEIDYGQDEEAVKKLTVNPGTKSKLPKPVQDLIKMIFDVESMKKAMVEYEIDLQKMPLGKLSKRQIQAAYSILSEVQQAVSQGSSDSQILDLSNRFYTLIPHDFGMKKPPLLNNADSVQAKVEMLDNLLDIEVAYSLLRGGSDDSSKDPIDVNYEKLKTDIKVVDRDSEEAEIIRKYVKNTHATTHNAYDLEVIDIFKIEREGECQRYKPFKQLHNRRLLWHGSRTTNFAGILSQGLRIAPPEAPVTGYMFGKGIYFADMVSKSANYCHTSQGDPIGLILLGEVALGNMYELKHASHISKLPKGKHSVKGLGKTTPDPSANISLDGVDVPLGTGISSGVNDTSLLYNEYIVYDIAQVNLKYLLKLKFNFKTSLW

O=c1[nH]c2c(c3ccccc13)Cc1c(CO)cccc1-2 [(I)(25), 10-hydroxymethyl-5,6-dihydro-5-oxo-11-H-indeno[1,2-c]isoquinoline]
pEC50: 6.54
